Values joined by “and” are separate entries in the source; they are usually repeats but may differ in a detail not shown here. Identical values can stand only once. Inconclusive results and toxic doses are left out. How the source made its calls: active means survival T/C of 150% or more; inactive means T/C below 125% in these data.
System: BDF1 mice, P388 leukemia ip, median survival T/C
Test: NCI In Vivo Anticancer Drug Screen. Data for tumor model P388 Leukemia (intraperitoneal) in B6D2F1 (BDF1) mice
Conditions: endpoint: median survival time, higher = longer survival
Summary of the method: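 Compound-treated tumour-bearing mice were compared with vehicle-treated controls. Survival was recorded, and the value is the treated-group measurement divided by the control-group measurement (T/C).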

[1] = dose: 50.0 mg/kg/injection, schedule: Q01DX009 (ip), vehicle: saline with Tween-80
[2] = dose: 100.0 mg/kg/injection, schedule: Q01DX009 (ip), vehicle: saline with Tween-80
[3] = dose: 200.0 mg/kg/injection, schedule: Q01DX009 (ip), vehicle: saline with Tween-80
[4] = dose: 100.0 mg/kg/injection, schedule: Q04DX003 (ip), vehicle: saline with Tween-80
[5] = dose: 200.0 mg/kg/injection, schedule: Q04DX003 (ip), vehicle: saline with Tween-80
[6] = dose: 400.0 mg/kg/injection, schedule: Q04DX003 (ip), vehicle: saline with Tween-80
[7] = dose: 25.0 mg/kg/injection, schedule: Q01DX009 (ip), vehicle: saline with Tween-80
[8] = dose: 100.0 mg/kg/injection, schedule: Q01DX001 (ip), vehicle: Klucel (hydroxypropylcellulose) (HPC)
[9] = dose: 100.0 mg/kg/injection, schedule: Q01DX009 (ip), vehicle: Klucel (hydroxypropylcellulose) (HPC)
[10] = dose: 100.0 mg/kg/injection, schedule: Q04DX003 (ip), vehicle: Klucel (hydroxypropylcellulose) (HPC)
[11] = dose: 200.0 mg/kg/injection, schedule: Q01DX001 (ip), vehicle: Klucel (hydroxypropylcellulose) (HPC)
[12] = dose: 200.0 mg/kg/injection, schedule: Q01DX009 (ip), vehicle: Klucel (hydroxypropylcellulose) (HPC)
[13] = dose: 200.0 mg/kg/injection, schedule: Q04DX003 (ip), vehicle: Klucel (hydroxypropylcellulose) (HPC)
[14] = dose: 400.0 mg/kg/injection, schedule: Q01DX001 (ip), vehicle: Klucel (hydroxypropylcellulose) (HPC)
[15] = dose: 400.0 mg/kg/injection, schedule: Q04DX003 (ip), vehicle: Klucel (hydroxypropylcellulose) (HPC)
[16] = dose: 75.0 mg/kg/injection, schedule: Q01DX009 (ip), vehicle: saline with Tween-80
[17] = dose: 100.0 mg/kg/injection, schedule: Q01DX001 (ip), vehicle: saline with Tween-80
[18] = dose: 12.5 mg/kg/injection, schedule: Q01DX009 (ip), vehicle: saline with Tween-80
[19] = dose: 50.0 mg/kg/injection, schedule: Q01DX009 (ip), vehicle: Klucel (hydroxypropylcellulose) (HPC)

Measured: T/C

CC1CC(C)(C)CC2CC(C(=O)O)(C(=O)O)CC12 (stereo not given)
inactive: dose: 25.0 mg/kg/injection, schedule: Q04DX003 (ip), vehicle: saline sonified 110 % of control | dose: 50.0 mg/kg/injection, schedule: Q04DX003 (ip), vehicle: saline sonified 100 % of control | dose: 100.0 mg/kg/injection, schedule: Q04DX003 (ip), vehicle: saline sonified 100 % of control

O=C1c2ccccc2C(O)(c2ccccc2)c2c(Cl)cccc21 (stereo not given)
inactive: [1] 104 % of control | [2] 111 % of control | [3] 95 % of control

COc1cc2c(cc1OC)/C(=C1\OC(=O)c3c1ccc1c3OCO1)N(C)CC2
inactive: [4] 100 % of control | [5] 92 % of control | [6] 88 % of control

CCCCCCCCCCCC[N+](C)(C)CC(O)C[N+](C)(C)CCCCCCCCCCCC
inactive: dose: 3.13 mg/kg/injection, schedule: Q01DX009 (ip), vehicle: saline 102 % of control | dose: 6.25 mg/kg/injection, schedule: Q01DX009 (ip), vehicle: saline 107 % of control

CCOC(=S)SCc1cc(C(C)(C)C)c(O)c(C(C)(C)C)c1
inactive: dose: 100.0 mg/kg/injection, schedule: Q04DX002 (ip), vehicle: saline with Tween-80 100 % of control | dose: 200.0 mg/kg/injection, schedule: Q04DX002 (ip), vehicle: saline with Tween-80 99 % of control

O=C1CCSC(=O)N1SC(Cl)(Cl)Cl
inactive: dose: 12.0 mg/kg/injection, schedule: Q01DX009 (ip), vehicle: saline with Tween-80 120 % of control | [7] 110 % of control | [1] 100 % of control

CC(C)OC(=S)SSC(=S)OC(C)C
inactive: [8] 118 % of control | [9] 104 % of control | [10] 104 % of control | [11] 109 % of control | [12] 109 % of control | [13] 118 % of control | [14] 104 % of control | [15] 118 % of control

C/C(=C\c1ccc2c(c1)OCO2)[N+](=O)[O-]
inactive: dose: 85.0 mg/kg/injection, schedule: Q04DX003 (ip), vehicle: Klucel (hydroxypropylcellulose) (HPC) 118 % of control | [10] 110 % of control | dose: 135.0 mg/kg/injection, schedule: Q04DX003 (ip), vehicle: Klucel (hydroxypropylcellulose) (HPC) 109 % of control | [13] 100 % of control and 109 % of control

CCN1C(=O)C(=O)c2ccccc21
inactive: [16] 86 % of control

Nc1ccc(OCc2ccc(C(=O)Nc3cccc(S(=O)(=O)F)c3)cc2)c(Cl)c1
inactive: [2] 91 % of control | [10] 100 % of control | [3] 91 % of control | [13] 100 % of control | dose: 400.0 mg/kg/injection, schedule: Q01DX009 (ip), vehicle: saline with Tween-80 100 % of control | [15] 100 % of control

CCCCN(CCCC)CC(O)c1ccnc2cc3c(cc12)OCO3 (stereo not given)
inactive: dose: 25.0 mg/kg/injection, schedule: Q01DX001 (ip), vehicle: Klucel (hydroxypropylcellulose) (HPC) 104 % of control | dose: 50.0 mg/kg/injection, schedule: Q01DX001 (ip), vehicle: Klucel (hydroxypropylcellulose) (HPC) 104 % of control | [8] 100 % of control | [17] 100 % of control

CCNC(=O)Nc1ccc(N(CC)CC)cc1
inactive: [4] 100 % of control | [5] 100 % of control | [6] 100 % of control

NC(=S)N/N=C/c1nccc2ccccc12
active: dose: 18.8 mg/kg/injection, schedule: Q01DX009 (ip), vehicle: saline with Tween-80 158 % of control | dose: 37.5 mg/kg/injection, schedule: Q01DX009 (ip), vehicle: saline with Tween-80 185 % of control | [16] 235 % of control
inactive: dose: 300.0 mg/kg/injection, schedule: Q01DX009 (ip), vehicle: saline with Tween-80 91 % of control

O=C(O/N=C1\C2CCC(C2)C1Cl)c1ccc([N+](=O)[O-])cc1 (stereo not given)
inactive: dose: 12.5 mg/kg/injection, schedule: Q04DX003 (ip), vehicle: saline 100 % of control | dose: 25.0 mg/kg/injection, schedule: Q04DX003 (ip), vehicle: saline 96 % of control | dose: 50.0 mg/kg/injection, schedule: Q04DX003 (ip), vehicle: saline 103 % of control

CCOC(=O)/C=C(\C)C(=O)c1ccc(OC)c(OC)c1OCc1ccccc1
inactive: [18] 100 % of control | [7] 100 % of control | [1] 90 % of control | [2] 90 % of control | [3] 100 % of control

CC(=O)CC(C)=O.CC(=O)CC(C)=O.CC(=O)CC(C)=O.[Cr]
inactive: dose: 100.0 mg/kg/injection, schedule: Q04DX003 (ip), vehicle: saline 90 % of control | dose: 200.0 mg/kg/injection, schedule: Q04DX003 (ip), vehicle: saline 90 % of control | dose: 400.0 mg/kg/injection, schedule: Q04DX003 (ip), vehicle: saline 90 % of control

O=C(O)c1ccccc1Nc1ccc(Br)cc1
inactive: dose: 50.0 mg/kg/injection, schedule: Q01DX001 (ip), vehicle: saline with Tween-80 100 % of control | [17] 91 % of control

CCOC(=O)C(C1=NC(C)(C)CC(C)O1)C1CCCCC1 (stereo not given)
inactive: dose: 50.0 mg/kg/injection, schedule: Q01DX001 (ip), vehicle: saline sonified 120 % of control | dose: 100.0 mg/kg/injection, schedule: Q01DX001 (ip), vehicle: saline sonified 110 % of control | dose: 200.0 mg/kg/injection, schedule: Q01DX001 (ip), vehicle: saline sonified 105 % of control

CCOC(=O)c1c(NC(C)=O)sc2c1CCCC2
inactive: [1] 104 % of control | dose: 50.0 mg/kg/injection, schedule: Q04DX003 (ip), vehicle: saline with Tween-80 90 % of control | [2] 100 % of control | [4] 104 % of control | [3] 100 % of control | [5] 100 % of control

C=C(NC(=O)C(=C)NC(=O)c1csc(C2=NC3c4csc(n4)C4NC(=O)c5csc(n5)C(C(C)(O)C(C)O)NC(=O)C5CSC(=N5)/C(=C/C)NC(=O)C(C(C)O)NC(=O)c5csc(n5)C3(CC2)NC(=O)C(C)NC(=O)C(=C)NC(=O)C(C)NC(=O)C(C(C)CC)NC2C=Cc3c(C(C)O)cc(nc3C2O)C(=O)OC4C)n1)C(N)=O (stereo not given)
active: [19] 158 % of control | [9] 155 % of control and 163 % of control | [12] 156 % of control and 165 % of control and 182 % of control
inactive: dose: 18.75 mg/kg/injection, schedule: Q01DX009 (ip), vehicle: Klucel (hydroxypropylcellulose) (HPC) 112 % of control | dose: 37.5 mg/kg/injection, schedule: Q01DX009 (ip), vehicle: Klucel (hydroxypropylcellulose) (HPC) 114 % of control | dose: 75.0 mg/kg/injection, schedule: Q01DX009 (ip), vehicle: Klucel (hydroxypropylcellulose) (HPC) 114 % of control | dose: 300.0 mg/kg/injection, schedule: Q01DX009 (ip), vehicle: Klucel (hydroxypropylcellulose) (HPC) 114 % of control

ClC1=C(Cl)C2(Cl)C3COCC3C1(Cl)C2(Cl)Cl (stereo not given)
inactive: [8] 113 % of control | [10] 104 % of control | [11] 113 % of control | [13] 100 % of control and 108 % of control | [14] 104 % of control | [15] 100 % of control

COc1cc2ccc(C(C)NCC#N)cc2cc1OC (stereo not given)
inactive: [19] 109 % of control | dose: 50.0 mg/kg/injection, schedule: Q04DX003 (ip), vehicle: Klucel (hydroxypropylcellulose) (HPC) 100 % of control | [9] 100 % of control | [10] 95 % of control | [12] 122 % of control | [13] 95 % of control

Cc1cc(C(=O)c2ccccn2)c2cccc(C(F)(F)F)c2n1
inactive: [18] 95 % of control | [4] 95 % of control | [3] 86 % of control | [5] 90 % of control | [6] 90 % of control

COC(=O)Cc1c[nH]c(=O)[nH]c1=O
inactive: dose: 50.0 mg/kg/injection, schedule: Q01DX009 (ip), vehicle: water 117 % of control | dose: 100.0 mg/kg/injection, schedule: Q01DX009 (ip), vehicle: water 102 % of control | dose: 100.0 mg/kg/injection, schedule: Q04DX003 (ip), vehicle: water 99 % of control | dose: 200.0 mg/kg/injection, schedule: Q01DX009 (ip), vehicle: water 96 % of control | dose: 200.0 mg/kg/injection, schedule: Q04DX003 (ip), vehicle: water 94 % of control

CC12C(C#N)=C(c3ccccc3)C=C(c3ccccc3)C1=C(c1ccccc1)c1ccccc12 (stereo not given)
inactive: [10] 108 % of control | [13] 95 % of control | [15] 91 % of control
